{"source": "patent US7060725B2", "about": "“Substituted sulfamate anticonvulsant derivatives” (Janssen Pharmaceutica N.V., priority 2002, dated 2006)", "key": {"[1]": {"tested_on": "maximal electroshock seizure (MES-induced seizure spread)", "assay": "Maximal electroshock seizure (MES) test, rat", "format": "in vivo, rats", "procedure": "Anticonvulsant activity was determined using the standard MES model for generalized tonic-clonic seizures (Swinyard E A, Woodhead J H, White H S, Franklin M R, In: […], Meldrum […], Dreifuss F E eds. Antiepileptic drugs. New York: Raven Press, 1989:85-102). An electric stimulus of 0.2 sec duration, 60 Hz, 50 mA in mice, 150 mA in rats, was delivered via corneal electrodes primed with an electrolyte solution containing an anesthetic agent (0.5% tetracaine hydrochloride in 0.9% saline). Mice or rats were randomly selected into control and test groups. The animals were dosed with vehicle or test compound, at varying concentrations. Mice were subjected to the electrical stimulus at 30 minutes and 4 hours following administration of test compound. […] Abolition of the hind limb tonic extensor component was an indication of the test compound's ability to inhibit MES-induced seizure spread. […] A probit analysis (Finney D J. Probit Analysis. Cambridge, England: Cambridge University Press, 1971) was used to calculate the ED50. Following the rat procedure described above, representative compounds of the instant invention were tested for biological activity in the rat, with results as listed in Table 6 and 7. Rat activity is listed as number of rats active/total number of rats tested @ time after administration of the test compound."}, "[2]": {"tested_on": "maximal electroshock seizure (MES-induced seizure spread)", "assay": "Maximal electroshock seizure (MES) test, mouse", "format": "in vivo, mice", "settings": "for Mouse Activity (number of mice active/total number of mice tested): 300 mg/kg", "procedure": "Anticonvulsant activity was determined using the standard MES model for generalized tonic-clonic seizures (Swinyard E A, Woodhead J H, White H S, Franklin M R, In: Levy R H, Mattson R H, Meldrum B S, Penry J K, Dreifuss F E eds. Antiepileptic drugs. New York: Raven Press, 1989:85–102).\nAn electric stimulus of 0.2 sec duration, 60 Hz, 50 mA in mice, 150 mA in rats, was delivered via corneal electrodes primed with an electrolyte solution containing an anesthetic agent (0.5% tetracaine hydrochloride in 0.9% saline).\nMice or rats were randomly selected into control and test groups. The animals were dosed with vehicle or test compound, at varying concentrations. […] Rats were subjected to electrical stimulus at time intervals between 15 minutes and 4 hours following administration of test compound. Abolition of the hind limb tonic extensor component was an indication of the test compound's ability to inhibit MES-induced seizure spread.\nThe ED50 (the calculated dose required to block the hindlimb tonic-extensor component of the maximal electroshock seizure in 50% of the animals tested) was calculated. A probit analysis (Finney D J. Probit Analysis. Cambridge, England: Cambridge University Press, 1971) was used to calculate the ED50.\nFollowing the mouse procedure described above, representative compounds of the instant invention were tested for biological activity in the mouse, with results as listed in Table 5. Mouse activity is listed as number of mice active/total number of mice tested @ time after administration of the test compound."}}}
{"smiles": "C=CCNS(=O)(=O)OC[C@@]12OC[C@H]3OC(C)(C)OC3[C@@H]1OC(C)(C)O2", "note": "(stereo partly drawn) [Compound 2, N-allyl-2,3:4,5-bis-O-(1-methylethylidene)-β-D-fructopyranose sulfamate]", "values": [{"measurement": "ED50", "setting": "[1]; @ 2 hrs", "value": "11.89 @ 2 hrs m/k"}, {"measurement": "Rat Activity (oral) (number of rats active/total number of rats tested)", "setting": "[1]; 8 mg/kg, @ 2 hrs", "value": "3/4 @ 2 hrs"}, {"measurement": "Rat Activity (oral) (number of rats active/total number of rats tested)", "setting": "[1]; 8 mg/kg, @ 4 hrs", "value": "2/4 @ 4 hrs"}, {"measurement": "Rat Activity (oral) (number of rats active/total number of rats tested)", "setting": "[1]; 8 mg/kg, @ 6 hrs", "value": "1/4 @ 6 hrs"}, {"measurement": "Rat Activity (oral) (number of rats active/total number of rats tested)", "setting": "[1]; 8 mg/kg, @ 8 hrs", "value": "1/4 @ 8 hrs"}, {"measurement": "Rat Activity (oral) (number of rats active/total number of rats tested)", "setting": "[1]; 20 mg/kg, @ 0.5 hrs", "value": "1/4 @ 0.5 hrs"}, {"measurement": "Rat Activity (oral) (number of rats active/total number of rats tested)", "setting": "[1]; 20 mg/kg, @ 2 hrs", "value": "2/2 @ 2 hrs"}, {"measurement": "Rat Activity (oral) (number of rats active/total number of rats tested)", "setting": "[1]; 20 mg/kg, @ 4 hrs", "value": "1/2 @ 4 hrs"}, {"measurement": "Rat Activity (oral) (number of rats active/total number of rats tested)", "setting": "[1]; 20 mg/kg, @ 6 hrs", "value": "1/2 @ 6 hrs"}, {"measurement": "Rat Activity (oral) (number of rats active/total number of rats tested)", "setting": "[1]; 200 mg/kg, @ 1 hr", "value": "3/8 @ 1 hr"}, {"measurement": "Rat Activity (oral) (number of rats active/total number of rats tested)", "setting": "[1]; 200 mg/kg, @ 2 hrs", "value": "4/8 @ 2 hrs"}, {"measurement": "Rat Activity (oral) (number of rats active/total number of rats tested)", "setting": "[1]; 200 mg/kg, @ 4 hrs", "value": "2/8 @ 4 hrs"}, {"measurement": "Rat Activity (oral) (number of rats active/total number of rats tested)", "setting": "[1]; 200 mg/kg, @ 6 hrs", "value": "1/8 @ 6 hrs"}]}
{"smiles": "CC1(C)OC2COC3(COS(=O)(=O)NCCBr)OC(C)(C)OC3C2O1", "note": "(stereo not shown) [Compound 3]", "values": [{"measurement": "Mouse Activity", "setting": "[2]; dosage 30, 100, 300 mg/kg", "value": "No Activity"}, {"measurement": "Rat Activity (oral) (number of rats active/total number of rats tested)", "setting": "[1]; 30 mg/kg, @ 1 hr", "value": "1/4 @ 1 hr"}, {"measurement": "Rat Activity (oral) (number of rats active/total number of rats tested)", "setting": "[1]; 30 mg/kg, @ 2 hrs", "value": "2/4 @ 2 hrs"}]}
{"smiles": "CCOC(=O)CCNS(=O)(=O)OCC12OCC3OC(C)(C)OC3C1OC(C)(C)O2", "note": "(stereo not shown) [Compound 4]", "values": [{"measurement": "Mouse Activity", "setting": "[2]; dosage 30, 100, 300 mg/kg", "value": "No Activity"}, {"measurement": "Rat Activity (oral) (number of rats active/total number of rats tested)", "setting": "[1]; 30 mg/kg, @ 1 hr", "value": "1/4 @ 1 hr"}]}
{"smiles": "COC(=O)CNS(=O)(=O)OCC12OCC3OC(C)(C)OC3C1OC(C)(C)O2", "note": "(stereo not shown) [Compound 5]", "values": [{"measurement": "Mouse Activity", "setting": "[2]; dosage 30, 100, 300 mg/kg", "value": "No activity"}, {"measurement": "ED50", "setting": "[1]; @ 2 hrs", "value": ">80 @ 2 hrs m/k"}, {"measurement": "Rat Activity (oral) (number of rats active/total number of rats tested)", "setting": "[1]; 30 mg/kg, @ 2 hrs", "value": "3/4 @ 2 hrs"}, {"measurement": "Rat Activity (oral) (number of rats active/total number of rats tested)", "setting": "[1]; 30 mg/kg, @ 4 hrs", "value": "1/4 @ 4 hrs"}]}
{"smiles": "CC1(C)OC2COC3(COS(=O)(=O)N[Si](c4ccccc4)(c4ccccc4)c4ccccc4)OC(C)(C)OC3C2O1", "note": "(stereo not shown) [Compound 6]", "values": [{"measurement": "Mouse Activity", "setting": "[2]; dosage 30, 100, 300 mg/kg", "value": "No activity"}]}
{"smiles": "COC(=O)CCCNS(=O)(=O)OCC12OCC3OC(C)(C)OC3C1OC(C)(C)O2", "note": "(stereo not shown) [Compound 8]", "values": [{"measurement": "Mouse Activity (number of mice active/total number of mice tested)", "setting": "[2]; @ 0.5 hrs after administration", "value": "1/1 @ 0.5 hrs"}, {"measurement": "Mouse Activity", "setting": "[2]; dosage 30, 100 mg/kg", "value": "No activity"}]}
{"smiles": "CC1(C)OC2[C@@H](CO[C@@]3(COS(=O)(=O)NO)OC(C)(C)O[C@@H]23)O1", "note": "(stereo partly drawn) [Compound 9, N-hydroxy-2,3:4,5-bis-O-(1-methylethylidene)-β-D-fructopyranose sulfamate]", "values": [{"measurement": "Mouse Activity (number of mice active/total number of mice tested)", "setting": "[2]; @ 4 hrs after administration", "value": "1/1 @ 4 hrs"}, {"measurement": "Mouse Activity", "setting": "[2]; dosage 30 mg/kg", "value": "No activity"}, {"measurement": "ED50", "setting": "[1]; @ 4 hrs", "value": "68.72 @ 4 hrs m/k"}, {"measurement": "Rat Activity (oral) (number of rats active/total number of rats tested)", "setting": "[1]; 30 mg/kg, @ 1 hr", "value": "1/4 @ 1 hr"}, {"measurement": "Rat Activity (oral) (number of rats active/total number of rats tested)", "setting": "[1]; 30 mg/kg, @ 2 hrs", "value": "2/4 @ 2 hrs"}, {"measurement": "Rat Activity (oral) (number of rats active/total number of rats tested)", "setting": "[1]; 30 mg/kg, @ 4 hrs", "value": "1/4 @ 4 hrs"}]}
{"smiles": "CONS(=O)(=O)OCC12OCC3OC(C)(C)OC3C1OC(C)(C)O2", "note": "(stereo not shown) [Compound 10]", "values": [{"measurement": "Mouse Activity (number of mice active/total number of mice tested)", "setting": "[2]; @ 0.5 hrs after administration", "value": "1/1 @ 0.5 hrs"}, {"measurement": "Mouse Activity (number of mice active/total number of mice tested)", "setting": "[2]; @ 4 hrs after administration", "value": "1/1 @ 4 hrs"}, {"measurement": "Mouse Activity", "setting": "[2]; dosage 30, 100 mg/kg", "value": "No activity"}]}
